According to US20020061888A1, “Combination therapy for the prophylaxis and treatment of hyperlipidemic conditions and disorders” (priority 2000, published 2002):
Values joined by “and” are separate entries in the source; they are usually repeats but may differ in a detail not shown here. Equal entries are not always repeated.

Tested on: Male beagle dogs
Experiment: Serum total cholesterol in beagle dogs (serum lipid measurements)
Assay type: in vivo
Conditions: for SERUM TOTAL CHOLESTEROL / TOTAL SERUM CHOLESTEROL: n = 6; for decrease in serum total cholesterol concentration: compared to vehicle; for decrease in serum total cholesterol: after four weeks, vs pretreatment
Protocol: Male beagle dogs (9-10 kg) obtained from Marshall farms were fed a normal chow diet once a day for a two hour interval and given water ad libitum. Prior to initiating treatment, the dogs were weighed and blood samples were drawn from the cephalic vein of each dog following an overnight fast to evaluate pretreatment serum total cholesterol levels at the start of the study. […] All doses were administered in gelatin capsules per os to each dog between 9:00-9:30 a.m. prior to feeding. All animals were fed between 9:30-10:00 a.m. and were allowed two hours to eat, at which time any remaining food was removed. […] Animals were dosed daily for three weeks and blood samples were taken at the end of each week after an overnight fast for comparison with pretreatment serum total cholesterol levels. Three consecutive 24 hour fecal samples were collected for each group during the last 72 hours of each week and used to measure the concentration of fecal biles acids excreted during that time period.
Blood was collected from the cephalic vein of each dog into serum separator tubes. The blood was centrifuged at 900×g for 20 minutes at room temperature and the serum decanted. All analyses were performed on a Cobas Mira Clinical Analyzer System (Roche Diagnostic Systems, Branchburg, N.J.) using Roche Diagnostic reagents for enzymatic determinations of serum cholesterol. Commercial calibrator and quality control materials were analyzed with each run to verify assay accuracy and precision. A two-tailed, paired Students t-test was used to determine the statistical significance of changes in serum total cholesterol in treated dogs compared to pretreatment values. A one-way analysis of variance (“ANOVA”) was used to compare each pair of treatment groups to determine the statistical significance of changes in serum total cholesterol.
Beagle dogs also were administered pravastatin to evaluate the monotherapeutic effect of pravastatin on serum total cholesterol.
Male beagle dogs (9-10 kg) obtained from Marshall farms were fed once a day for two hours and given water ad libitum. Prior to initiating treatment, blood samples were drawn from the cephalic vein of each dog to evaluate pretreatment total serum cholesterol levels at the start of the study.
For the dose ranging study, the dogs were assigned to one of five groups based on mean body weights and serum total cholesterol levels. Each group received one of the following dosages: (1) vehicle (empty capsule, afternoon dosing), (2) 3.0 mg/kg/day pravastatin (afternoon dosing), (3) 10 mg/kg/day pravastatin (afternoon dosing), (4) 30 mg/kg/day pravastatin (afternoon dosing), and (5) 10 mg/kg/day pravastatin (morning dosing). One capsule containing pravastatin was administered per os to each dog between 9:00-9:30 a.m. prior to feeding for the 10 mg/kg/day morning dosing group and between 2:30-3:00 p.m. for the afternoon dosing groups. All animals were fed between 9:30-10:00 a.m. and were allowed two hours to eat, at which time any remaining food was removed. […] Animals were dosed daily for four weeks and blood samples were taken at the end of each week after an overnight fast for comparison with pretreatment serum total cholesterol levels.
Following this initial four week dose-ranging study, dogs from the two groups receiving 10 mg/kg/day pravastatin (a.m. and p.m. dosing groups) were randomized into two new treatment groups based on serum total cholesterol levels to initiate the combination treatment study. […] Dosing continued in this manner for an additional four weeks (Weeks 5-8) with blood and 48-hour fecal samples collected at the end of each week for serum lipid measurements and fecal bile acid determinations, respectively.

CC[C@H](C)C(=O)O[C@H]1C[C@H](O)C=C2C=C[C@H](C)[C@H](CC[C@@H](O)C[C@@H](O)CC(=O)O)[C@H]21 [pravastatin, Pravastatin]
% change in serum total cholesterol compared to the pretreatment value of each group (pravastatin 0.25 mg/kg/day, Week 1): (+2) % | SERUM TOTAL CHOLESTEROL (pravastatin 0.25 mg/kg/day, Week 1, mean ± SEM): 157 ± 10 mg/dL | % change in serum total cholesterol compared to the pretreatment value of each group (pravastatin 0.25 mg/kg/day, Week 2): (+3) % | SERUM TOTAL CHOLESTEROL (pravastatin 0.25 mg/kg/day, Week 2, mean ± SEM): 159 ± 12 mg/dL | % change in serum total cholesterol compared to the pretreatment value of each group (pravastatin 0.25 mg/kg/day, Week 3): (0) % | SERUM TOTAL CHOLESTEROL (pravastatin 0.25 mg/kg/day, Week 3, mean ± SEM): 154 ± 13 mg/dL | decrease in serum total cholesterol concentration (pravastatin 0.25 mg/kg/day, one week of treatment): 2% | decrease in serum total cholesterol concentration (pravastatin 0.25 mg/kg/day, three weeks of treatment): 0% | % change in serum total cholesterol compared to the pretreatment value of each group (pravastatin 1.0 mg/kg/day, Week 1): (−1) % | SERUM TOTAL CHOLESTEROL (pravastatin 1.0 mg/kg/day, Week 1, mean ± SEM): 153 ± 11 mg/dL | % change in serum total cholesterol compared to the pretreatment value of each group (pravastatin 1.0 mg/kg/day, Week 2): (−4) % | SERUM TOTAL CHOLESTEROL (pravastatin 1.0 mg/kg/day, Week 2, mean ± SEM): 149 ± 11^2 mg/dL | % change in serum total cholesterol compared to the pretreatment value of each group (pravastatin 1.0 mg/kg/day, Week 3): (−8) % | SERUM TOTAL CHOLESTEROL (pravastatin 1.0 mg/kg/day, Week 3, mean ± SEM): 143 ± 10^2 mg/dL | decrease in serum total cholesterol concentration (pravastatin 1.0 mg/kg/day, one week of treatment): 1% | decrease in serum total cholesterol concentration (pravastatin 1.0 mg/kg/day, three weeks of treatment): 8% | % change in serum total cholesterol compared to the pretreatment value of each group (pravastatin 3.0 mg/kg/day pm dosing, Week 1): (−1) % | TOTAL SERUM CHOLESTEROL (pravastatin 3.0 mg/kg/day pm dosing, Week 1, mean ± SEM): 157 ± 16 mg/dL | % change in serum total cholesterol compared to the pretreatment value of each group (pravastatin 3.0 mg/kg/day pm dosing, Week 2): (−16) % | TOTAL SERUM CHOLESTEROL (pravastatin 3.0 mg/kg/day pm dosing, Week 2, mean ± SEM): 133 ± 11^3 mg/dL | % change in serum total cholesterol compared to the pretreatment value of each group (pravastatin 3.0 mg/kg/day pm dosing, Week 3): (−11) % | TOTAL SERUM CHOLESTEROL (pravastatin 3.0 mg/kg/day pm dosing, Week 3, mean ± SEM): 140 ± 12^3 mg/dL | % change in serum total cholesterol compared to the pretreatment value of each group (pravastatin 3.0 mg/kg/day pm dosing, Week 4): (−16) % | TOTAL SERUM CHOLESTEROL (pravastatin 3.0 mg/kg/day pm dosing, Week 4, mean ± SEM): 132 ± 10^3 mg/dL | lowering of serum total cholesterol (pravastatin 3 mg/kg/day, four week dose ranging study): 16% | % change in serum total cholesterol compared to the pretreatment value of each group (pravastatin 4.0 mg/kg/day, Week 1): (−6) % | SERUM TOTAL CHOLESTEROL (pravastatin 4.0 mg/kg/day, Week 1, mean ± SEM): 148 ± 10^2 mg/dL | % change in serum total cholesterol compared to the pretreatment value of each group (pravastatin 4.0 mg/kg/day, Week 2): (−7) % | SERUM TOTAL CHOLESTEROL (pravastatin 4.0 mg/kg/day, Week 2, mean ± SEM): 146 ± 8 mg/dL | % change in serum total cholesterol compared to the pretreatment value of each group (pravastatin 4.0 mg/kg/day, Week 3): (−11) % | SERUM TOTAL CHOLESTEROL (pravastatin 4.0 mg/kg/day, Week 3, mean ± SEM): 139 ± 9^2 mg/dL | decrease in serum total cholesterol concentration (pravastatin 4.0 mg/kg/day, one week of treatment): 6% | decrease in serum total cholesterol concentration (pravastatin 4.0 mg/kg/day, three weeks of treatment): 11% | decrease in serum total cholesterol (pravastatin 10 mg/kg/day a.m. dosing): 16% | % change in serum total cholesterol compared to the pretreatment value of each group (pravastatin 10.0 mg/kg/day am dosing, Week 1): (+6) % | TOTAL SERUM CHOLESTEROL (pravastatin 10.0 mg/kg/day am dosing, Week 1, mean ± SEM): 164 ± 12 mg/dL | % change in serum total cholesterol compared to the pretreatment value of each group (pravastatin 10.0 mg/kg/day am dosing, Week 2): (−13) % | TOTAL SERUM CHOLESTEROL (pravastatin 10.0 mg/kg/day am dosing, Week 2, mean ± SEM): 135 ± 15^3 mg/dL | % change in serum total cholesterol compared to the pretreatment value of each group (pravastatin 10.0 mg/kg/day am dosing, Week 3): (−15) % | TOTAL SERUM CHOLESTEROL (pravastatin 10.0 mg/kg/day am dosing, Week 3, mean ± SEM): 131 ± 10^3 mg/dL | % change in serum total cholesterol compared to the pretreatment value of each group (pravastatin 10.0 mg/kg/day am dosing, Week 4): (−16) % | TOTAL SERUM CHOLESTEROL (pravastatin 10.0 mg/kg/day am dosing, Week 4, mean ± SEM): 130 ±7 mg/dL and 130 ± 7^3 mg/dL | decrease in serum total cholesterol (pravastatin 10 mg/kg/day p.m. dosing): 21% | % change in serum total cholesterol compared to the pretreatment value of each group (pravastatin 10.0 mg/kg/day pm dosing, Week 1): (−8) % | TOTAL SERUM CHOLESTEROL (pravastatin 10.0 mg/kg/day pm dosing, Week 1, mean ± SEM): 146 ± 10 mg/dL | % change in serum total cholesterol compared to the pretreatment value of each group (pravastatin 10.0 mg/kg/day pm dosing, Week 2): (−19) % | TOTAL SERUM CHOLESTEROL (pravastatin 10.0 mg/kg/day pm dosing, Week 2, mean ± SEM): 129 ± 10^3 mg/dL | % change in serum total cholesterol compared to the pretreatment value of each group (pravastatin 10.0 mg/kg/day pm dosing, Week 3): (−19) %
